Data taken from BindingDB's records for patent US20250213571 (Alumis, 2025).

Target: T1, Non-receptor tyrosine-protein kinase TYK2 [556-888] (Homo sapiens, UniProt P29597)
T1 construct: 556-888
Assay: TYK2 JH2 Domain Binding Assay
Protocol: Binding constants for the compounds described herein against the JH2 domain were determined by the following protocol for a KINOMEscan assay (DiscoveRx). A fusion protein of a partial length construct of human TYK2 (JH2domain-pseudokinase) (amino acids G556 to D888 based on reference sequence NP_003322.3) and the DNA binding domain of NFkB was expressed in transiently transfected HEK293 cells. From these HEK 293 cells, extracts were prepared in M-PER extraction buffer (Pierce) in the presence of Protease Inhibitor Cocktail Complete (Roche) and Phosphatase Inhibitor Cocktail Set II (Merck) per manufacturers' instructions. The TYK2 (JH2domain-pseudokinase) fusion protein was labeled with a chimeric double-stranded DNA tag containing the NFkB binding site fused to an amplicon for qPCR readout, which was added directly to the expression extract (the final concentration of DNA-tag in the binding reaction is 0.1 nM).

T1 sequence (P29597 556-888): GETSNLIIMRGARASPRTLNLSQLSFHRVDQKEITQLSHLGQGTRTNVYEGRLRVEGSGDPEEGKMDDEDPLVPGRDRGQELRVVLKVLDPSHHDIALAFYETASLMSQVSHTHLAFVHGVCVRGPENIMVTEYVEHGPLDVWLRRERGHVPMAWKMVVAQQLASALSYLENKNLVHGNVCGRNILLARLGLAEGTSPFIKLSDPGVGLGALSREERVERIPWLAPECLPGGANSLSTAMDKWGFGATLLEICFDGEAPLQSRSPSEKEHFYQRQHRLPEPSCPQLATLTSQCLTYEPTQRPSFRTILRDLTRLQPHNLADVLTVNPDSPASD

- Kd: < 10 nM
Compound: CNc1cc2nn3c(cnc13)C(=O)N[C@H](C)COCc1cc(c3c(c1)ncn3C)N2 [US20250213571, Compound 8]
